Activity calls are given as the source filed them. Rule as the data show it, for most assays here: actives have a measured Kd and inactives only a lower limit.
What was measured:
[1] = molecular target: T1, Dual specificity mitogen-activated protein kinase kinase 5 (Homo sapiens, UniProt Q13163)
T1 sequence (Q13163 whole entry): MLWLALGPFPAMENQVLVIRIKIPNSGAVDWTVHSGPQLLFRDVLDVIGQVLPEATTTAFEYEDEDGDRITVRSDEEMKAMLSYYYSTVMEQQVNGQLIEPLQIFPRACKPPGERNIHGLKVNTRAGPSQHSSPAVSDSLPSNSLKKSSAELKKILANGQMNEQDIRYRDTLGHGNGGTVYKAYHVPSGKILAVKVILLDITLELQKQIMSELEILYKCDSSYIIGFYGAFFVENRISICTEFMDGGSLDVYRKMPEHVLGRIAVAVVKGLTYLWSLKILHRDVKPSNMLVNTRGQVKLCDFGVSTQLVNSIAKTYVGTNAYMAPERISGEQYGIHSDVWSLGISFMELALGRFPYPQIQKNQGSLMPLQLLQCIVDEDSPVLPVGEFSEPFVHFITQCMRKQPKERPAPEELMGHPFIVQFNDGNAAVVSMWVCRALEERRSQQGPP

[2] = molecular target: T2, EKC/KEOPS complex subunit TP53RK (Homo sapiens, UniProt Q96S44)
T2 sequence (Q96S44 whole entry): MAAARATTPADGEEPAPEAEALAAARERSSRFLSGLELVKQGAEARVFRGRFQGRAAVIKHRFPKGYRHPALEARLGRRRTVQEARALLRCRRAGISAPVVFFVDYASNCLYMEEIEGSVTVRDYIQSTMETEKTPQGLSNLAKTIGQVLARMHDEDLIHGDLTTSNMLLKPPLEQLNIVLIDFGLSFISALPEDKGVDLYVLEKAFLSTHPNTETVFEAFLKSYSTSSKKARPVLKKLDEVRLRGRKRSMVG

[3] = molecular target: Mitogen-activated protein kinase 1 (Homo sapiens, UniProt P28482)
[4] = molecular target: Tyrosine-protein kinase FRK (Homo sapiens, UniProt P42685)
[5] = molecular target: Cyclin-dependent kinase 13 (Homo sapiens, UniProt Q14004)
[6] = molecular target: T3, Calcium/calmodulin-dependent protein kinase type IV (Homo sapiens, UniProt Q16566)
T3 sequence (Q16566 whole entry): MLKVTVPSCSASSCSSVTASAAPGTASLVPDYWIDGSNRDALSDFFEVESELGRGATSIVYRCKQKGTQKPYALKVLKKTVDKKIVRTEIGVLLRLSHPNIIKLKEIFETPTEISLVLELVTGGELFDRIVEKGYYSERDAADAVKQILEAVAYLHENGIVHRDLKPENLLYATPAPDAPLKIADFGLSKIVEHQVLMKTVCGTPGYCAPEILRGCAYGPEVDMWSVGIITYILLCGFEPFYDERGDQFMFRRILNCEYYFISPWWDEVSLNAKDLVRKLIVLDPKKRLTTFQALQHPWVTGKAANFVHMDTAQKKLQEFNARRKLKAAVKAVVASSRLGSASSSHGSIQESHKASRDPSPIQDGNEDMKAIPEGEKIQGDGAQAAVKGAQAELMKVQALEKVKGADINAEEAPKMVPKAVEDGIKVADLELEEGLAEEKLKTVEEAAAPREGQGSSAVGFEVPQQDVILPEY

[7] = molecular target: GTP-binding protein 4 (Homo sapiens, UniProt Q9BZE4)
[8] = molecular target: T4, Beta-adrenergic receptor kinase 1 (Homo sapiens, UniProt P25098)
T4 sequence (P25098 whole entry): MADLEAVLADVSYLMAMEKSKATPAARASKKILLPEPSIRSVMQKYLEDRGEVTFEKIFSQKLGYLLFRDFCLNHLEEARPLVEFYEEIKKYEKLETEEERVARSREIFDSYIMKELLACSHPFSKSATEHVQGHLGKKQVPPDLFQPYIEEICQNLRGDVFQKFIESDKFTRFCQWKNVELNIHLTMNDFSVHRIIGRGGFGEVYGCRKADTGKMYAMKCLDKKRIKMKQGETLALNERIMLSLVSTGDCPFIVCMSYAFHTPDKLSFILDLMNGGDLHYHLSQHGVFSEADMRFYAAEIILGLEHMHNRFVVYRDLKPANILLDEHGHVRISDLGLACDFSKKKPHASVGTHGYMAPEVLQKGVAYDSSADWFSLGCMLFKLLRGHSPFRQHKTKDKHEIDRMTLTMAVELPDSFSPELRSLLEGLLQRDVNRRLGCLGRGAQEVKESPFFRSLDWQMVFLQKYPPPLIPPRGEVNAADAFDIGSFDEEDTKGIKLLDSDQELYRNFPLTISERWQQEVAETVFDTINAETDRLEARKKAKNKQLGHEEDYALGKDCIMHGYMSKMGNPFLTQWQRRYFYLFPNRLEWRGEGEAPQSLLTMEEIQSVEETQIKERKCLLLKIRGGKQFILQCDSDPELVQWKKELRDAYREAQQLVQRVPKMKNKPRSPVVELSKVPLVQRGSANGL

[9] = molecular target: T5, Phenylalanine--tRNA ligase beta subunit (Homo sapiens, UniProt Q9NSD9)
T5 sequence (Q9NSD9 whole entry): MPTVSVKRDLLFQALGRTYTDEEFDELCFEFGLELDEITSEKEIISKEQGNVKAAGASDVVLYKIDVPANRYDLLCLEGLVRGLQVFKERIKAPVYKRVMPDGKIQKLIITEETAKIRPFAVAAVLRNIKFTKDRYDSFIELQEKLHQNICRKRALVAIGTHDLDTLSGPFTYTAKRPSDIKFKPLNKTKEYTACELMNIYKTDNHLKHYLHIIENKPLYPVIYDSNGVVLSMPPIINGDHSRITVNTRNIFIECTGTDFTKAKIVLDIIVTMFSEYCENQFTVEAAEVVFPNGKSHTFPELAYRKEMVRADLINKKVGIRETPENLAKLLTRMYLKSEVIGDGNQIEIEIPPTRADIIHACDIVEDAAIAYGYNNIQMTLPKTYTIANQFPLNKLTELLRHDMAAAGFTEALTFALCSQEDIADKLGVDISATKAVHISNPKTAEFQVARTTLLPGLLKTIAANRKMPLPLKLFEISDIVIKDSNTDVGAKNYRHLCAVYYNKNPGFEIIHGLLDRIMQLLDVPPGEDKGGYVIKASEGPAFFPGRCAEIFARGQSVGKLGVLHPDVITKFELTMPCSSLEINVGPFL
Also: in the data inactive means no Kd found up to 30 µM.

Chain of Mitogen-activated protein kinase 1 (P28482 whole entry): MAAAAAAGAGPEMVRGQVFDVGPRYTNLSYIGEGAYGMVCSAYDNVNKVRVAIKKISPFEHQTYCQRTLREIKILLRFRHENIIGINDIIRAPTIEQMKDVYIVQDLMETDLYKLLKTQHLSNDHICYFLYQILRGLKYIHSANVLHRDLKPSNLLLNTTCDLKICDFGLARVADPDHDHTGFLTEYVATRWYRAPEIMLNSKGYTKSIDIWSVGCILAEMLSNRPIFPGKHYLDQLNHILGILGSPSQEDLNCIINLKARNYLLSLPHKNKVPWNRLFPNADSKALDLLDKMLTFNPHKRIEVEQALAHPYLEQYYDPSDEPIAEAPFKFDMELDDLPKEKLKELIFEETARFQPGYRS
Chain of Cyclin-dependent kinase 13 (Q14004 whole entry): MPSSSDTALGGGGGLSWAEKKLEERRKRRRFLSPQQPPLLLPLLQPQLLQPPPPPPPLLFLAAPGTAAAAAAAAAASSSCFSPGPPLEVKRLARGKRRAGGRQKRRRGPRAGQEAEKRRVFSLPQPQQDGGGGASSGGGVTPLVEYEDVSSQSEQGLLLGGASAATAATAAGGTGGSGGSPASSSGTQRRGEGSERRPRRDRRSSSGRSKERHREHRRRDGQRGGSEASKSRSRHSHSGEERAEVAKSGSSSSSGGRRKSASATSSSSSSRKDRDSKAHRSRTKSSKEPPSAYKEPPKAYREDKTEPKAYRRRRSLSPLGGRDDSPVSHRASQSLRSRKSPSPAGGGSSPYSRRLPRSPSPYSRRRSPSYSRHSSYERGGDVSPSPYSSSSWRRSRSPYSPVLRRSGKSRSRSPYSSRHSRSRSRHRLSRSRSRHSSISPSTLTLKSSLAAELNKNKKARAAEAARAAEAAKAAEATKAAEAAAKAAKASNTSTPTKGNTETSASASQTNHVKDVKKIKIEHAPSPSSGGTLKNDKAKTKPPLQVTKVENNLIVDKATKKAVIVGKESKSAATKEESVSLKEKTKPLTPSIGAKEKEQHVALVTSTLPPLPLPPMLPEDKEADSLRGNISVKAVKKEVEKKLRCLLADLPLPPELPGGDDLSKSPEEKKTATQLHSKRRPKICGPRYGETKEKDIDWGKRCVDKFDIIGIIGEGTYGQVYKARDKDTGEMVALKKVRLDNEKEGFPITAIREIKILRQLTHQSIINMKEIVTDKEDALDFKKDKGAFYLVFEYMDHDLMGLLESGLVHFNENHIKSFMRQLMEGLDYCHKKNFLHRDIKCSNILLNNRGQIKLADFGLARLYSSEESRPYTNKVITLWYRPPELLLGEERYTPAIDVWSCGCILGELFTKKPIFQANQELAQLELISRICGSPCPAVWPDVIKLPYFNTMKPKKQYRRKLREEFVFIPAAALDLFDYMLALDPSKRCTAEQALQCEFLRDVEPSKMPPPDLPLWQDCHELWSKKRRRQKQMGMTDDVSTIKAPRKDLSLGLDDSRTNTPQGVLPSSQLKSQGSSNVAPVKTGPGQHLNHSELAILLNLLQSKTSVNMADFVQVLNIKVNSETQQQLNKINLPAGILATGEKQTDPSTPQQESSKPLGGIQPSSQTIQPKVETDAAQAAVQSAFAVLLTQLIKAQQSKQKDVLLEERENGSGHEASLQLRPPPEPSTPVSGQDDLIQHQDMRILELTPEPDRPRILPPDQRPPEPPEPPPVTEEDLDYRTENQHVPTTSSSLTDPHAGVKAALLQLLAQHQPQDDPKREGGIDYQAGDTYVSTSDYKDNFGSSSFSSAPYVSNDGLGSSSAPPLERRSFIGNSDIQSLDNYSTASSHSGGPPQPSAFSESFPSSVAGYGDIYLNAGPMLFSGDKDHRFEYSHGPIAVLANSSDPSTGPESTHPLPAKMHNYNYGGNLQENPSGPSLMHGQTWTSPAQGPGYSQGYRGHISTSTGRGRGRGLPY
Chain of Tyrosine-protein kinase FRK (P42685 whole entry): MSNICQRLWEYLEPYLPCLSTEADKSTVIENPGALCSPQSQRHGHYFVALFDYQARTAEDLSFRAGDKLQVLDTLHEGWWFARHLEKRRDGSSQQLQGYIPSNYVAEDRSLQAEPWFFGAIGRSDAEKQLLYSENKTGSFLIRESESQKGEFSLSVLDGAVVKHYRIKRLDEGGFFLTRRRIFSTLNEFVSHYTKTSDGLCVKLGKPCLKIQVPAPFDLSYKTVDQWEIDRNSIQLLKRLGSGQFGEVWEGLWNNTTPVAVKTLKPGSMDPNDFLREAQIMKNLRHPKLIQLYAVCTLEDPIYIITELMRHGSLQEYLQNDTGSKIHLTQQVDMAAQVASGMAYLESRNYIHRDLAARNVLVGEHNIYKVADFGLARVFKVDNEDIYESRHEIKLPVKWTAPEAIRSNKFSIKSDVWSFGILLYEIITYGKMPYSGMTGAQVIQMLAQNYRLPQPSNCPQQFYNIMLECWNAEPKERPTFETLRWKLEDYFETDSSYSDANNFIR

| Compound | Kd [1] | Kd [2] | Kd [3] | Kd [4] | Kd [5] | Kd [6] | Kd [7] | Kd [8] | Kd [9] |
| --- | --- | --- | --- | --- | --- | --- | --- | --- | --- |
| Cc1c(F)cc(C(=O)NC2CC2)cc1-c1ccc(C(=O)NCC(C)(C)C)cn1 [LOSMAPIMOD] | > 30 µM (inactive) | > 30 µM (inactive) | > 30 µM (inactive) | > 30 µM (inactive) | > 30 µM (inactive) | > 30 µM (inactive) | > 30 µM (inactive) | > 30 µM (inactive) | > 30 µM (inactive) |
| O=C(c1ccc(F)c(F)c1Nc1ccc(I)cc1F)N1CC(O)([C@@H]2CCCCN2)C1 [COBIMETINIB] | > 30 µM (inactive) | > 30 µM (inactive) | > 30 µM (inactive) | > 30 µM (inactive) | > 30 µM (inactive) | > 30 µM (inactive) | > 30 µM (inactive) | > 30 µM (inactive) | > 30 µM (inactive) |
| COc1cc(N2CCC(N3CCN(C)CC3)CC2)ccc1Nc1ncnc(Nc2ccccc2S(=O)(=O)C(C)C)n1 [ASP-3026] | > 30 µM (inactive) | > 30 µM (inactive) | > 30 µM (inactive) | 0.39 µM (active) | > 30 µM (inactive) | > 30 µM (inactive) | 0.009 µM | > 30 µM (inactive) | > 30 µM (inactive) |
| O=c1sn(-c2cccc3ccccc23)c(=O)n1Cc1ccccc1 [TIDEGLUSIB] | > 30 µM (inactive) | > 30 µM (inactive) | > 30 µM (inactive) | > 30 µM (inactive) | > 30 µM (inactive) | > 30 µM (inactive) | > 30 µM (inactive) | > 30 µM (inactive) | > 30 µM (inactive) |
| CNS(=O)(=O)Nc1nccc(Cc2c(C)c3ccc(Oc4ncccn4)cc3oc2=O)c1F [AVUTOMETINIB] | 2 µM (active) | > 30 µM (inactive) | > 30 µM (inactive) | > 30 µM (inactive) | > 30 µM (inactive) | > 30 µM (inactive) | > 30 µM (inactive) | > 30 µM (inactive) | > 30 µM (inactive) |
| Cc1ccc(S(=O)(=O)Nc2nc3ccccc3nc2Nc2ccc3nsnc3c2)cc1 | > 30 µM (inactive) | > 30 µM (inactive) | > 30 µM (inactive) | > 30 µM (inactive) | > 30 µM (inactive) | > 30 µM (inactive) | > 30 µM (inactive) | > 30 µM (inactive) | > 30 µM (inactive) |
| CN1CCC(CNc2ccc3ncc(-c4cccc(OC(F)(F)F)c4)n3n2)CC1 [SGI-1776] | > 30 µM (inactive) | > 30 µM (inactive) | > 30 µM (inactive) | > 30 µM (inactive) | > 30 µM (inactive) | > 30 µM (inactive) | > 30 µM (inactive) | > 30 µM (inactive) | > 30 µM (inactive) |
| CCCS(=O)(=O)Nc1ccc(F)c(C(=O)c2c[nH]c3ncc(-c4ccc(Cl)cc4)cc23)c1F [VEMURAFENIB] | 0.734 µM (active) | > 30 µM (inactive) | > 30 µM (inactive) | > 30 µM (inactive) | > 30 µM (inactive) | > 30 µM (inactive) | > 30 µM (inactive) | > 30 µM (inactive) | > 30 µM (inactive) |
| C=CC(=O)N1CCC(Oc2cc3c(Nc4ccc(Cl)c(Cl)c4F)ncnc3cc2OC)CC1 [POZIOTINIB] | > 30 µM (inactive) | > 30 µM (inactive) | > 30 µM (inactive) | > 30 µM (inactive) | > 30 µM (inactive) | > 30 µM (inactive) | > 30 µM (inactive) | > 30 µM (inactive) | > 30 µM (inactive) |
